Results as given in ChEMBL document CHEMBL1201862, “PubChem BioAssay data set” (2004).
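Exposure lasted 48 hours, with cells grown in 96-well plates and compounds tested at five concentrations. GI50: concentration for 50% inhibition of growth.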 Activity calls are given as the source filed them. No stated cut-off is given here; in the data, active = GI50 up to about 1.1 µM and inactive = higher.

Columns and labels:
Assay in all cases: NCI tumour cell line growth inhibition, 48 h
K562 = test system: K562
U-251 = test system: U-251
HT-29 = test system: HT-29
MOLT-4 = test system: MOLT-4
SN12C = test system: SN12C
M14 = test system: M14
UACC-62 = test system: UACC-62
UO-31 = test system: UO-31
SK-MEL-2 = test system: SK-MEL-2
OVCAR-4 = test system: OVCAR-4
LOX IMVI = test system: LOX IMVI
COLO 205 = test system: COLO 205
ACHN = test system: ACHN
DMS-273 = test system: DMS-273
Malme-3M = test system: Malme-3M
SNB-75 = test system: SNB-75
SNB-19 = test system: SNB-19
SW-620 = test system: SW-620
EKVX = test system: EKVX
A549 = test system: A549

Measured: GI50

CC12Nc3ccccc3C1=C(c1ccccc1)CC1C(=O)OC(=O)C12 (stereo not given)
inactive: K562 > 100 µM | U-251 > 100 µM | HT-29 > 100 µM | MOLT-4 > 100 µM | SN12C > 100 µM | M14 > 100 µM | UACC-62 > 100 µM | UO-31 > 100 µM | SK-MEL-2 > 100 µM | OVCAR-4 > 100 µM | LOX IMVI > 100 µM | COLO 205 > 100 µM | ACHN > 100 µM | DMS-273 > 100 µM | Malme-3M > 100 µM | SNB-75 1.86 µM | SNB-19 > 100 µM | SW-620 > 100 µM | EKVX > 100 µM | A549 > 100 µM

NCCCNCCSSCc1ccccc1CSSCCNCCCN
inactive: K562 23.6 µM | U-251 > 100 µM | HT-29 14.2 µM | MOLT-4 22 µM | SN12C > 100 µM | M14 31.9 µM | UACC-62 34.1 µM | UO-31 60.5 µM | SK-MEL-2 > 100 µM | OVCAR-4 70.6 µM | LOX IMVI 61.1 µM | COLO 205 39.4 µM | ACHN 37 µM | DMS-273 > 100 µM | Malme-3M 90.6 µM | SNB-75 16.4 µM | SNB-19 > 100 µM | SW-620 16.7 µM | EKVX > 100 µM | A549 > 100 µM
